Molecules are shown by their SMILES.

In one series the test system is Botrytis cinerea. Kind of series: Test A: preventive spray on tomato seedlings, Botrytis cinerea (tomato Botrytis), visual disease rating. It is filed as in vivo. Particulars: 100 = 100% disease control, 0 = no disease control relative to controls. The text has this: General protocol for preparing test suspensions for Tests A-H: the test compounds were first dissolved in acetone in an amount equal to 3% of the final volume and then suspended at the desired concentration (in ppm) in acetone and purified water (50/50 mix by volume) containing 250 ppm of the surfactant Trem® 014 (polyhydric alcohol esters). The resulting test suspensions were then used in Tests A-F. Spraying a 40 ppm test suspension to the point of run-off on the test plants was the equivalent of a rate of 160 g/ha. Unless otherwise indicated, the rating values indicate a 40 ppm test suspension was used. The test suspension was sprayed to the point of run-off on tomato seedlings. The following day the seedlings were inoculated with a spore suspension of Botrytis cinerea (the causal agent of tomato Botrytis) and incubated in saturated atmosphere at 20° C. for 48 h, and then moved to a growth chamber at 27° C. for 3 days, after which time visual disease ratings were made. Results for Tests A-F are given in Table A. In the Table, a rating of 100 indicates 100% disease control and a rating of 0 indicates no disease control (relative to the controls). A dash (-) indicates no test results.

Another series deals with Septoria nodorum. The experiment in a line: Test C: preventive spray on wheat seedlings, Septoria nodorum (Septoria glume blotch), visual disease rating. Type of series: in vivo. The settings on record: Parastagonospora nodorum, topical, 264 h, 100 = 100% disease control, 0 = no disease control relative to controls. The text has this:
General protocol for preparing test suspensions for Tests A-H: the test compounds were first dissolved in acetone in an amount equal to 3% of the final volume and then suspended at the desired concentration (in ppm) in acetone and purified water (50/50 mix by volume) containing 250 ppm of the surfactant Trem® 014 (polyhydric alcohol esters). The resulting test suspensions were then used in Tests A-F. Spraying a 40 ppm test suspension to the point of run-off on the test plants was the equivalent of a rate of 160 g/ha. Unless otherwise indicated, the rating values indicate a 40 ppm test suspension was used. The test suspension was sprayed to the point of run-off on wheat seedlings. The following day the seedlings were inoculated with a spore suspension of Septoria nodorum (the causal agent of Septoria glume blotch) and incubated in a saturated atmosphere at 20° C. for 48 h, and then moved to a growth chamber at 20° C. for 9 days, after which time visual disease ratings were made. Results for Tests A-F are given in Table A. In the Table, a rating of 100 indicates 100% disease control and a rating of 0 indicates no disease control (relative to the controls). A dash (-) indicates no test results.

In the next series the test system is Septoria tritici. Kind of series: Test D: preventive spray on wheat seedlings, Septoria tritici (wheat leaf blotch), visual disease rating. The settings on record: Zymoseptoria tritici, topical, 504 h, 100 = 100% disease control, 0 = no disease control relative to controls. It is filed as in vivo. The text has this:
General protocol for preparing test suspensions for Tests A-H: the test compounds were first dissolved in acetone in an amount equal to 3% of the final volume and then suspended at the desired concentration (in ppm) in acetone and purified water (50/50 mix by volume) containing 250 ppm of the surfactant Trem® 014 (polyhydric alcohol esters). The resulting test suspensions were then used in Tests A-F. Spraying a 40 ppm test suspension to the point of run-off on the test plants was the equivalent of a rate of 160 g/ha. Unless otherwise indicated, the rating values indicate a 40 ppm test suspension was used. The test suspension was sprayed to the point of run-off on wheat seedlings. The following day the seedlings were inoculated with a spore suspension of Septoria tritici (the causal agent of wheat leaf blotch) and incubated in saturated atmosphere at 24° C. for 48 h, and then moved to a growth chamber at 20° C. for 19 days, after which time visual disease ratings were made. Results for Tests A-F are given in Table A. In the Table, a rating of 100 indicates 100% disease control and a rating of 0 indicates no disease control (relative to the controls). A dash (-) indicates no test results.

Series [1] relates to Puccinia recondita f. sp. tritici. The experiment in a line: Test E2: preventive spray on wheat seedlings, Puccinia recondita f. sp. tritici (wheat leaf rust), visual disease rating. Type of series: in vivo. Particulars: topical, 192 h, 100 = 100% disease control, 0 = no disease control relative to controls. The text has this:
(§1) General protocol for preparing test suspensions for Tests A-H: the test compounds were first dissolved in acetone in an amount equal to 3% of the final volume and then suspended at the desired concentration (in ppm) in acetone and purified water (50/50 mix by volume) containing 250 ppm of the surfactant Trem® 014 (polyhydric alcohol esters). The resulting test suspensions were then used in Tests A-F. Spraying a 40 ppm test suspension to the point of run-off on the test plants was the equivalent of a rate of 160 g/ha. Unless otherwise indicated, the rating values indicate a 40 ppm test suspension was used. The test suspension was sprayed to the point of run-off on wheat seedlings. The following day the seedlings were inoculated with a spore suspension of Puccinia recondita f. sp. tritici (the causal agent of wheat leaf rust) and incubated in a saturated atmosphere at 20° C. for 24 h, and then moved to a growth chamber at 20° C. for 7 days, after which time visual disease ratings were made. Results for Tests A-F are given in Table A. In the Table, a rating of 100 indicates 100% disease control and a rating of 0 indicates no disease control (relative to the controls). A dash (-) indicates no test results.

In series [2] the test system is Blumeria graminis f. sp. tritici. Kind of series: Test F: preventive spray on wheat seedlings, Blumeria graminis f. sp. tritici (wheat powdery mildew), visual disease rating. Type of series: in vivo. The settings on record: topical, 192 h, 100 = 100% disease control, 0 = no disease control relative to controls.
Description: as §1, with “spore dust” for “spore suspension”, “of Blumeria graminis” for “of Puccinia recondita”, “tritici (also known as Erysiphe graminis f. sp. tritici, the” for “tritici (the”, “wheat powdery mildew)” for “wheat leaf rust)”, “in” for “in a saturated atmosphere at 20° C. for 24 h, and then moved to”, “for 8” for “for 7”

As usually defined, the pest or weed control is how far the test organism was held down. Regarding `Cc1ccc(Nc2c(-c3ccc(F)cc3Cl)c(C)nn2C)c(Cl)c1` [Compound 2, 4-(2-chloro-4-fluorophenyl)-N-(2-chloro-4-methylphenyl)-1,3-dimethyl-1H-pyrazol-5-amine], the pest or weed control at 40 µg/mL in the series with Botrytis cinerea turned out to be 100%; in the series with Septoria nodorum it was 0%; in the series on Septoria tritici, 100%; in series [1], 95%; in series [2] it was 97%.
Consider `Cc1ccc(Nc2c(-c3ccc(F)cc3Cl)c(C)nn2C)c(Br)c1` [Compound 3, N-(2-bromo-4-methylphenyl)-4-(2-chloro-4-fluorophenyl)-1,3-dimethyl-1H-pyrazol-5-amine], for which the pest or weed control at 40 µg/mL in the series on Botrytis cinerea stood at 99%; in the series on Septoria nodorum, 0%; with Septoria tritici, 100%; in series [1], 99%; in series [2], 96%.
`Cc1ccc(Nc2c(-c3ccc(F)cc3Br)c(C)nn2C)c(Cl)c1` [Compound 4, 4-(2-bromo-4-fluorophenyl)-N-(2-chloro-4-methylphenyl)-1,3-dimethyl-1H-pyrazol-5-amine]: the pest or weed control at 40 µg/mL came out at 100% in the series with Botrytis cinerea; 0% with Septoria nodorum; 100% in the series on Septoria tritici; 97% in series [1]; 97% in series [2].
As to `Cc1ccc(Nc2c(-c3ccc(F)cc3Br)c(C)nn2C)c(Br)c1` [Compound 5, 4-(2-bromo-4-fluorophenyl)-N-(2-bromo-4-methylphenyl)-1,3-dimethyl-1H-pyrazol-5-amine], the pest or weed control at 40 µg/mL was determined as 99% with Botrytis cinerea; 0% with Septoria nodorum; 100% in the series with Septoria tritici; 97% in series [1]; 97% in series [2].
For the compound `Cc1ccc(Nc2c(-c3ccc(F)cc3Cl)c(C)nn2C)c(F)c1` [Compound 6, 4-(2-chloro-4-fluorophenyl)-N-(2-fluoro-4-methylphenyl)-1,3-dimethyl-1H-pyrazol-5-amine], the pest or weed control at 40 µg/mL worked out at 99% with Botrytis cinerea; 0% in the series with Septoria nodorum; 100% with Septoria tritici; 0% in series [1]; 100% in series [2].
By melting point is commonly meant the temperature of the solid-liquid transition. `Cc1cc(F)c(Nc2c(-c3ccc(F)cc3Br)c(C)nn2C)c(Br)c1` [Compound 7, N-(2-bromo-6-fluoro-4-methylphenyl)-4-(2-bromo-4-fluorophenyl)-1,3-dimethyl-1H-pyrazol-5-amine] gave a melting point of 143 to 145 °C. The same compound gave a pest or weed control at 40 µg/mL in the series with Botrytis cinerea of 100%. The pest or weed control at 40 µg/mL with Septoria nodorum worked out at 99%. In the series on Septoria tritici, this compound gave a pest or weed control at 40 µg/mL of 100%. In series [1], the pest or weed control at 40 µg/mL stood at 100%. This compound also came in with a pest or weed control at 40 µg/mL in series [2] of 100%.
For `Cc1cc(F)c(Nc2c(-c3ccc(F)cc3F)c(C)nn2C)c(Br)c1` [Compound 8, N-(2-bromo-6-fluoro-4-methylphenyl)-4-(2,4-difluorophenyl)-1,3-dimethyl-1H-pyrazol-5-amine], the melting point was in the range of 143 to 144 °C. In the series on Botrytis cinerea, this compound returned a pest or weed control at 40 µg/mL of 100%. This compound also had a pest or weed control at 40 µg/mL in the series with Septoria nodorum of 97%. The same compound registered a pest or weed control at 40 µg/mL in the series on Septoria tritici of 100%. The compound further returned a pest or weed control at 40 µg/mL in series [1] of 100%. This compound showed a pest or weed control at 40 µg/mL in series [2] of 100%.
In turn, `Cc1cc(F)c(Nc2c(-c3ccc(F)cc3F)c(C)nn2C)c(F)c1` [Compound 9, N-(2,6-difluoro-4-methylphenyl)-4-(2,4-difluorophenyl)-1,3-dimethyl-1H-pyrazol-5-amine] returned a melting point of 156 to 158 °C. Further, in the series on Botrytis cinerea, the pest or weed control at 40 µg/mL was determined as 100%. The pest or weed control at 40 µg/mL with Septoria nodorum stood at 96%. This compound displayed a pest or weed control at 40 µg/mL in the series with Septoria tritici of 100%. Besides, in series [1], the pest or weed control at 40 µg/mL amounted to 96%. In series [2], this compound returned a pest or weed control at 40 µg/mL of 100%.
On to `Cc1cc(F)c(Nc2c(-c3ccc(F)cc3Cl)c(C)nn2C)c(F)c1` [Compound 10, 4-(2-chloro-4-fluorophenyl)-N-(2,6-difluoro-4-methylphenyl)-1,3-dimethyl-1H-pyrazol-5-amine], for which the melting point lay in the range of 121 to 123 °C. The pest or weed control at 40 µg/mL in the series on Botrytis cinerea was 100%. In addition, the pest or weed control at 40 µg/mL with Septoria nodorum is 90%. Besides, the pest or weed control at 40 µg/mL in the series with Septoria tritici was found to be 100%. The compound further displayed a pest or weed control at 40 µg/mL in series [1] of 100%. Moreover, the pest or weed control at 40 µg/mL in series [2] was 100%.
Compound `Cc1cc(F)c(Nc2c(-c3ccc(F)cc3Br)c(C)nn2C)c(Cl)c1` [Compound 11, 4-(2-bromo-4-fluorophenyl)-N-(2-chloro-6-fluoro-4-methylphenyl)-1,3-dimethyl-1H-pyrazol-5-amine] yielded a melting point of 145 to 146 °C.
The compound `Cc1cc(F)c(Nc2c(-c3ccc(F)cc3Cl)c(C)nn2C)c(Cl)c1` [Compound 12, N-(2-chloro-6-fluoro-4-methylphenyl)-4-(2-chloro-4-fluorophenyl)-1,3-dimethyl-1H-pyrazol-5-amine] had a melting point of 137 to 138 °C.
Take `Cc1cc(Cl)c(Nc2c(-c3ccc(F)cc3Cl)c(C)nn2C)c(Cl)c1` [Compound 13, 4-(2-chloro-4-fluorophenyl)-N-(2,6-dichloro-4-methylphenyl)-1,3-dimethyl-1H-pyrazol-5-amine]: the melting point was in the range of 188 to 189 °C. The same compound had a pest or weed control at 40 µg/mL in the series on Botrytis cinerea of 100%. Further, the pest or weed control at 40 µg/mL in the series on Septoria nodorum is 0%. The same compound showed a pest or weed control at 40 µg/mL in the series on Septoria tritici of 100%. Besides, the pest or weed control at 40 µg/mL in series [1] turned out to be 100%. Further, the pest or weed control at 40 µg/mL in series [2] amounted to 100%.
As to `Cc1cc(F)c(Nc2c(-c3ccc(F)cc3Br)c(C)nn2C)c(F)c1` [Compound 14, 4-(2-bromo-4-fluorophenyl)-N-(2,6-difluoro-4-methylphenyl)-1,3-dimethyl-1H-pyrazol-5-amine], the melting point lay in the range of 114 to 116 °C. In the series with Botrytis cinerea, this compound came in with a pest or weed control at 40 µg/mL of 100%. This compound also showed a pest or weed control at 40 µg/mL in the series with Septoria nodorum of 86%. The pest or weed control at 40 µg/mL in the series on Septoria tritici was determined as 100%. This compound showed a pest or weed control at 40 µg/mL in series [1] of 100%. In series [2], this compound returned a pest or weed control at 40 µg/mL of 100%.

(Values after patent US9464056B2, “Fungicidal 4-methylanilino pyrazoles” (E. I. DU PONT DE NEMOURS AND COMPANY, priority 2012, dated 2016).)
